Measured values taken from publication PMC9154192 (PLoS Biology, 2022).
Several values for one entry are separate records, joined by “and”; a condition that tells them apart may be missing. Equal values may be shown once. Read-outs that look alike come from different tables or passages of the source.

Columns and labels:
[1] = format: in vivo, female rats; parameters: unit not given here; conditions: for Plasma concentration, individual animals: female rats 1-6, single oral 100 mg/kg, 100 mg/kg; for Plasma concentration, Average: female rats, average of 6 animals
[2] = for % MNPCE (Mean ± S.D.) / % PCE (Mean ± S.D.): 24 hours after dosing
Procedure: Genotoxicity studies for PP2S were performed according to the ICH (International conference on harmonization) harmonized tripartite guideline, S2(R1). Regarding previous reports, the bacterial reverse mutation test, chromosomal abnormality test, and mouse bone marrow micronucleus test were performed with slight modifications.

[3] = format: cell-based
[4] = TA100, 4.88 μg/plate, absence of S9 mix
[5] = TA100, 4.88 μg/plate, presence of S9 mix
[6] = TA100, 78.1 μg/plate, absence of S9 mix
[7] = TA100, 78.1 μg/plate, presence of S9 mix
[8] = TA100, 313 μg/plate, absence of S9 mix
[9] = TA100, 313 μg/plate, presence of S9 mix
[10] = TA1535, 4.88 μg/plate, absence of S9 mix
[11] = TA1535, 4.88 μg/plate, presence of S9 mix
[12] = TA1535, 78.1 μg/plate, absence of S9 mix
[13] = TA1535, 78.1 μg/plate, presence of S9 mix
[14] = TA1535, 313 μg/plate, absence of S9 mix
[15] = TA1535, 313 μg/plate, presence of S9 mix
[16] = TA1537, 4.88 μg/plate, absence of S9 mix
[17] = TA1537, 4.88 μg/plate, presence of S9 mix
[18] = TA1537, 78.1 μg/plate, absence of S9 mix
[19] = TA1537, 78.1 μg/plate, presence of S9 mix
[20] = TA1537, 313 μg/plate, absence of S9 mix
[21] = TA1537, 313 μg/plate, presence of S9 mix
[22] = WP2uvrA (pKM101), 4.88 μg/plate, absence of S9 mix
[23] = WP2uvrA (pKM101), 4.88 μg/plate, presence of S9 mix
[24] = WP2uvrA (pKM101), 78.1 μg/plate, absence of S9 mix
[25] = WP2uvrA (pKM101), 78.1 μg/plate, presence of S9 mix
[26] = WP2uvrA (pKM101), 313 μg/plate, absence of S9 mix

Structure (SMILES): CCCCOc1ccc2cc(CN3C(=O)CC[C@H]3C(=O)OC)c3cc(OC)c(OC)cc3c2c1 [PP2S, Methyl (S)-1-((3-butoxy-6,7-dimethoxyphenanthren-9-yl)methyl)-5-oxopyrrolidine-2-carboxylate]
- Plasma concentration, individual animals ([1]; 2 h): 237.59
- Plasma concentration, individual animals ([1]; 4 h): 316.47
- Plasma concentration, individual animals ([1]; 6 h): 323.47
- Plasma concentration, individual animals ([1]; 8 h): 253.32
- Plasma concentration, individual animals ([1]; 10 h): 217.50
- Plasma concentration, individual animals ([1]; 12 h): 210.07
- Plasma concentration, individual animals ([1]; 14 h): 174.31
- Plasma concentration, individual animals ([1]; 16 h): 211.29
- Plasma concentration, individual animals ([1]; 18 h): 122.20
- Plasma concentration, individual animals ([1]; 20 h): 116.07
- Plasma concentration, individual animals ([1]; 22 h): 87.81
- Plasma concentration, individual animals ([1]; 24 h): 63.19
- Plasma concentration, Average ([1]; single oral 100 mg/kg, 2 h): 320.00
- Plasma concentration, Average ([1]; single oral 100 mg/kg, 4 h): 432.00
- Plasma concentration, Average ([1]; single oral 100 mg/kg, 6 h): 276.00
- Plasma concentration, Average ([1]; single oral 100 mg/kg, 8 h): 154.00
- Plasma concentration, Average ([1]; single oral 100 mg/kg, 10 h): 132.00
- Plasma concentration, Average ([1]; single oral 100 mg/kg, 12 h): 110.00
- Plasma concentration, Average ([1]; single oral 100 mg/kg, 14 h): 97.00
- Plasma concentration, Average ([1]; single oral 100 mg/kg, 16 h): 81.00
- Plasma concentration, Average ([1]; single oral 100 mg/kg, 18 h): 78.00
- Plasma concentration, Average ([1]; single oral 100 mg/kg, 20 h): 67.00
- Plasma concentration, Average ([1]; single oral 100 mg/kg, 22 h): 52.00
- Plasma concentration, Average ([1]; single oral 100 mg/kg, 24 h): 35.00
- Plasma concentration, Average ([1]; single oral 150 mg/kg, 18 h): 85.00
- Plasma concentration, Average ([1]; single oral 150 mg/kg, 20 h): 76.00
- Plasma concentration, Average ([1]; single oral 150 mg/kg, 22 h): 63.00
- Plasma concentration, Average ([1]; single oral 150 mg/kg, 24 h): 42.00
- Mean body weights ± S.D. ([2]; 500 mg/kg P.O., 0 day): 35.9 ± 1.16 g
- Mean body weights ± S.D. ([2]; 500 mg/kg P.O., 1 day): 35.5 ± 1.48 g
- % MNPCE (Mean ± S.D.) ([2]; 500 mg/kg P.O.): 0.055 ± 0.037%
- % PCE (Mean ± S.D.) ([2]; 500 mg/kg P.O.): 30.5 ± 2.16%
- Mean body weights ± S.D. ([2]; 1000 mg/kg P.O., 0 day): 35.9 ± 1.07 g
- Mean body weights ± S.D. ([2]; 1000 mg/kg P.O., 1 day): 36.1 ± 1.42 g
- % MNPCE (Mean ± S.D.) ([2]; 1000 mg/kg P.O.): 0.060 ± 0.034%
- % PCE (Mean ± S.D.) ([2]; 1000 mg/kg P.O.): 31.8 ± 2.49%
- Mean body weights ± S.D. ([2]; 2000 mg/kg P.O., 0 day): 35.9 ± 1.14 g
- Mean body weights ± S.D. ([2]; 2000 mg/kg P.O., 1 day): 34.9 ± 1.63 g
- % MNPCE (Mean ± S.D.) ([2]; 2000 mg/kg P.O.): 0.055 ± 0.021%
- % PCE (Mean ± S.D.) ([2]; 2000 mg/kg P.O.): 33.6 ± 1.67%
- RPD (relative population doubling) ([2]; S9 mix +, Trt-Rec 6-18 hr, 125 µg/mL): 69.4%
- RPD (relative population doubling) ([2]; S9 mix +, Trt-Rec 6-18 hr, 250 µg/mL): 67.4%
- RPD (relative population doubling) ([2]; S9 mix -, Trt-Rec 6-18 hr, 125 µg/mL): 78.8%
- RPD (relative population doubling) ([2]; S9 mix -, Trt-Rec 6-18 hr, 250 µg/mL): 74.3%
- RPD (relative population doubling) ([2]; S9 mix -, Trt-Rec 24-0 hr, 125 µg/mL): 46.9%
- RPD (relative population doubling) ([2]; S9 mix -, Trt-Rec 24-0 hr, 250 µg/mL): 38.6%
- genotoxicity ([2]; bone marrow micronucleus formation test): did not show genotoxicity
- Individual revertant colony counts [3, 4]: 77 colonies per plate and 71 colonies per plate
- Mean revertant colonies [3, 4]: 74 colonies per plate
- Individual revertant colony counts [3, 5]: 116 colonies per plate and 111 colonies per plate
- Mean revertant colonies [3, 5]: 114 colonies per plate
- Individual revertant colony counts [3, 6]: 78 colonies per plate and 85 colonies per plate
- Mean revertant colonies [3, 6]: 82 colonies per plate
- Individual revertant colony counts [3, 7]: 111 colonies per plate and 107 colonies per plate
- Mean revertant colonies [3, 7]: 109 colonies per plate
- Individual revertant colony counts [3, 8]: 98 colonies per plate and 95 colonies per plate
- Mean revertant colonies [3, 8]: 97 colonies per plate
- Individual revertant colony counts [3, 9]: 111 colonies per plate and 107 colonies per plate
- Mean revertant colonies [3, 9]: 109 colonies per plate
- Individual revertant colony counts [3, 10]: 18 colonies per plate and 19 colonies per plate
- Mean revertant colonies [3, 10]: 19 colonies per plate
- Individual revertant colony counts [3, 11]: 10 colonies per plate and 12 colonies per plate
- Mean revertant colonies [3, 11]: 11 colonies per plate
- Individual revertant colony counts [3, 12]: 18 colonies per plate and 19 colonies per plate
- Mean revertant colonies [3, 12]: 19 colonies per plate
- Individual revertant colony counts [3, 13]: 17 colonies per plate and 15 colonies per plate
- Mean revertant colonies [3, 13]: 16 colonies per plate
- Individual revertant colony counts [3, 14]: 15 colonies per plate and 17 colonies per plate
- Mean revertant colonies [3, 14]: 16 colonies per plate
- Individual revertant colony counts [3, 15]: 16 colonies per plate and 15 colonies per plate
- Mean revertant colonies [3, 15]: 16 colonies per plate
- Individual revertant colony counts [3, 16]: 10 colonies per plate and 11 colonies per plate
- Mean revertant colonies [3, 16]: 11 colonies per plate
- Individual revertant colony counts [3, 17]: 16 colonies per plate and 14 colonies per plate
- Mean revertant colonies [3, 17]: 15 colonies per plate
- Individual revertant colony counts [3, 18]: 11 colonies per plate and 10 colonies per plate
- Mean revertant colonies [3, 18]: 11 colonies per plate
- Individual revertant colony counts [3, 19]: 18 colonies per plate and 17 colonies per plate
- Mean revertant colonies [3, 19]: 18 colonies per plate
- Individual revertant colony counts [3, 20]: 9 colonies per plate and 8 colonies per plate
- Mean revertant colonies [3, 20]: 9 colonies per plate
- Individual revertant colony counts [3, 21]: 18 colonies per plate and 19 colonies per plate
- Mean revertant colonies [3, 21]: 19 colonies per plate
- Individual revertant colony counts [3, 22]: 92 colonies per plate and 86 colonies per plate
- Mean revertant colonies [3, 22]: 89 colonies per plate
- Individual revertant colony counts [3, 23]: 149 colonies per plate and 156 colonies per plate
- Mean revertant colonies [3, 23]: 153 colonies per plate
- Individual revertant colony counts [3, 24]: 87 colonies per plate and 94 colonies per plate
- Mean revertant colonies [3, 24]: 91 colonies per plate
- Individual revertant colony counts [3, 25]: 156 colonies per plate and 167 colonies per plate
- Mean revertant colonies [3, 25]: 162 colonies per plate
- Individual revertant colony counts [3, 26]: 91 colonies per plate and 93 colonies per plate
- Mean revertant colonies [3, 26]: 92 colonies per plate
- Individual revertant colony counts ([3]; WP2uvrA (pKM101), 313 μg/plate, presence of S9 mix): 162 colonies per plate and 165 colonies per plate
- genotoxicity ([3]; bacterial reverse mutation test): did not show genotoxicity
